Measurements taken from patent US10697020B2, “MicroRNA-129 as a biomarker for colorectal cancer” (THE RESEARCH FOUNDATION FOR THE STATE UNIVERSITY OF NEW YORK, priority 2013, dated 2020).
Where two headings read alike, the source gives them in different places.

Legend:
SW480 cells = test: Cell proliferation assay (WST-1), SW480; format: cell-based, human; settings: day 5
Method: (§1) HCT116, RKO and SW480 cells were plated in 6-well plates at 2×10^5, 1×10^5 and 1×10^5 per well, respectively. Twenty-four hours after plating, 100 nM of miR-129 precursor (Ambion, Carlsbad, Calif., USA) or siRNA against BCL2 (Dharmacon, Lafayette, Colo., USA) were transfected to the cells with oligofectamine (Invitrogen, Carlsbad, Calif., USA) in accordance with the manufacturer's protocol. Negative miRNA (Ambion) was also transfected as a negative control.
(§2) Twenty-four hours after transfection, cells were seeded in 96-well plates at a density of 2000 cells per well. The cell proliferation assay was performed on days 1, 3 and 5 by incubating 10 μl WST-1 (Roche Applied Science, Mannheim, Germany) in the culture medium for 1 h and reading the absorbance at 450 and 630 nm. The cell proliferation rate was calculated by […]. Experiments for the cell proliferation assay were performed at least three times.

E2F3 = test: Western immunoblot analysis of E2F3 protein in HCT116 cells; format: cell-based, human; settings: HCT116 cells after miR-129 transfection
Method: as §1
(§3) Forty-eight hours after transfection, cells were lysed with RIPA buffer (Sigma-Aldrich), and Western immunoblotting was performed using standard procedures. The primary antibodies used for the analysis were mouse anti-human BCL2 antibody (1:200; Thermo Fisher Scientific, Fremont, Calif., USA), rabbit anti-human cleaved caspase-3 antibody (1:200; Cell Signaling Technology, Beverly, Mass., USA), rabbit anti-human cleaved caspase-9 antibody (1:200; Cell Signaling Technology), mouse anti-human E2F3 antibody (1:5000; Millipore, Billerica, Mass., USA), mouse anti-human TS antibody (1:400; Millipore), mouse anti-human GAPDH antibody (1:1000, Santa Cruz Biotechnology, Santa Cruz, Calif., USA) or mouse anti-human α-tubulin antibody (1:1000; Millipore). […] HRP activity was detected with SuperSignal West Pico Chemiluminescent Substrate (Thermo Fisher Scientific) and visualized in an UVP Bioimaging system.

RKO cells = test: Cell proliferation assay (WST-1), RKO; format: cell-based, human; settings: day 5
Method: as §1, §2

TS = test: Western immunoblot analysis of TS protein in HCT116 cells; format: cell-based, human; settings: HCT116 cells with ectopic expression of miR-129
Method: as §1, §3

[1] = test system: HCT116, RKO and SW480 cells; test: Apoptosis assay (annexin V / propidium iodide, flow cytometry); format: cell-based, human; settings: all colorectal cancer cell lines tested (HCT116, RKO, SW480); 48 h after transfection; vs negative miRNA
Method: as §1
Forty-eight hours after transfection, cells were harvested, stained with propidium iodide and anti annexin-V antibody (Annexin V-FITC Apoptosis Detection kit, BD Biosciences, San Jose, Calif., USA) following the manufacturer's protocol, and stained cells were detected by flow cytometry. The experiments for the apoptosis assay were performed at least three times.

HCT116 cells [2] = test: 5-FU treatment and cytotoxicity assay (WST-1); format: cell-based; settings: 72 hours, read-out: IC50 (50% growth inhibition, WST-1)
Method: Twenty-four hours after transfection, HCT116 cells were plated in 96-well plates at 2×10^3 cells per well in triplicates in 100 μl of medium. After 24 hours, fresh medium containing 5-FU alone (ranged from 1 to 4 μM) or miR-129 precursor alone (ranged from 10 nM to 40 nM) or 5-FU and miR-129 together (at a constant ratio 1:10, with increasing concentrations of both compounds) were added, and cells were cultured for an additional 72 hours. Cell viability was measured using the WST-1 assay, and concentration-dependent curves were generated based on the cell viability. The combination index was calculated by CompuSyn software. See, Chou T C et al. (2007).

HCT116 cells [3] = test: Cell cycle analysis (flow cytometry), HCT116; format: cell-based, human; settings: 36 h after transfection
Method: as §1
Thirty-six hours after transfection, cells were harvested and resuspended at 0.5 to 1×10^6 cells/m in modified Krishan buffer supplemented with 0.02 mg/ml RNase H (Invitrogen) and 0.05 mg/ml propidium iodide (Sigma-Aldrich, St. Louis, Mo., USA) (See, Krishan A. The Journal of Cell Biology. 1975; 66(1):188-93). Stained cells were detected by flow cytometry and results were analyzed with Modfit LT™ software. The experiments for cell cycle analysis were performed at least three times.

BCL2 = test: Western immunoblot analysis of BCL2 protein after miRNA/siRNA transfection; format: cell-based, human; settings: HCT116, RKO and SW480 cells; 100 nM transfected; 48 h; vs negative control miRNA
Method: as §1, §3

HCT116 cells [4] = test: Cell proliferation assay (WST-1), HCT116; format: cell-based, human; settings: day 5
Method: as §1, §2

[5] = parameters: species or system NOD/SCID mice; settings: mouse, in vivo
Method: When solid and palpable tumors with an average volume of 100-150 mm^3 were formed (at day 14), mice were randomly separated into four groups such that each group was treated either with negative control miRNA, miR-129 alone, 5-FU alone or miR-129 and 5-FU together. The miRNAs were complexed with siPORTamine and injected intratumorally while 5-FU (50 μg g^−1) was injected systemically via the tail vein. All injections were provided in 3-day intervals for a total of three times before the tumors were collected at day 24. […] Importantly, despite the overexpression, the expression levels of miR-129 copy number remained within the physiological range (less than 20 copies/cell based on cycle threshold value at 30, which is equal to the expression of miR-129 in normal colon mucosa). Moreover, the control tumor xenografts had no miR-129 expression (cycle threshold value at 35). […]
The miR-129 specific primer and the internal control RNU44 gene were purchased from Ambion. cDNA synthesis was performed by the High Capacity cDNA Synthesis Kit (Applied Biosystems, CA, USA) with miRNA specific primers. […] Expression level of miR-129 was calculated by the ΔΔCT method based on the internal control RNU44, normalized to the control group and plotted as relative quantification (RQ).

Substance: miR-129: nucleic acid having a sequence of CUUUUUGCGGUCUGGGCUUGC (SEQ ID NO. 1); miR-129 precursor from Ambion used (chemistry not given here; listed as Homo sapiens)
- cell proliferation reduced compared to negative controls (SW480 cells): 44.7%
- E2F3 protein levels (E2F3): reduce E2F3 protein levels
- cell proliferation reduced compared to negative controls (RKO cells): 43.9%
- TS protein expression (TS): suppressed the protein expression of TS
- apoptosis (proportion of cells annexin V positive and propidium iodide negative) [1]: increased apoptosis significantly
- IC50 (HCT116 cells [2]; miR-129 alone): 11.2 nM
- IC50 (HCT116 cells [2]; miR-129 when combined with 5-FU (fixed ratio 1:10)): 6.3 nM
- cell cycle arrest (G1/S and G2/S ratios) (HCT116 cells [3]): reached significance at G2 checkpoint
- BCL2 protein expression (BCL2): reduced the BCL2 protein expression
- cell proliferation reduced compared to negative controls (HCT116 cells [4]): 41.2%
- miR-129 copy number in injected tumors [5]: less than 20 copies/cell
